Read-outs that look alike come from different tables or passages of the source.
Tests used:
[1] = test system: RIF-1 murine fibrosarcoma; test: RIF-1 tumor growth delay, thiocolchicine alone and with cisplatin, camptothecin or amonafide (Example 6); type: in vivo, C3H mice; details: Ex# E047
Method: Cisplatin for Injection, USP, was obtained as the commercial product from Bristol Laboratories (Platinol®, Lot No. K1F26A). Camptothecin was obtained from Boehinger-Ingelheim Lot 142088. Amonafide dihydrochloride was prepared in house, in a solution of 20 mg/ml. 0.9% Sodium Chloride for Injection, USP (saline) was manufactured by Abbott Laboratories (Lot No. 55-199-DK). Sterile Water for Injection, USP (WFI) was manufactured by Lyphomed, Inc. (Lot No. 390849). DMSO was obtained from Sigma (St. Louis, Mo.). DMF (dimethylformamide) was obtained from Sigma (St. Louis, Mo.). PEG400 was obtained from Sigma (St. Louis, Mo.).
For preparation of cisplatin formulation, the contents of a 10-mg vial of lyophilized CDDP (Cisplatin for Injection) was resuspended with 10 mL WFI to produce a 1 mg/mL CDDP suspension.
Camptothecin was prepared in a solution of DMSO at 0.75 mg/ml.
This was further diluted using saline to […].
Amonafide was diluted to 15 mg/ml with saline.
Food and water were available ad libitum.
Tumors: The RIF-1 murine fibrosarcoma cell line was maintained in in vitro culture (Wayrnouth medium supplemented with 20% fetal bovine serum) at 37° C. in a humidified 5% CO2 incubator. Log-phase RIF-1 cells were trypsinized and harvested from cell culture flasks to yield a concentration of 4×10^6 cells/mL, then injected intradermally in a volume of 50 μL (equivalent to 2×10^5 cells per injection) into both flanks of each mouse. Nine days later, when tumors reached approximately 100 mm^3 in size, the animals were randomized to different treatment groups.
Evaluation of Tumor Growth Delay: Tumors were measured three times weekly for up to 22 days with Vernier calipers. Tumor volume (cubic millimeters, mm^3) was calculated according to the formula: [formula] in which D1-3 are perpendicular diameters measured in millimeters (mm). Tumor volume quadrupling time (TVQT), defined as the time required for a tumor to grow to four times (4×) its initial volume (at the time of treatment), was used as a study endpoint.
The TVQT was determined for each treatment group and expressed in days as the mean±standard error (SE).

[2] = test system: murine fibrosarcomas (RIF-1 cells); test: RIF-1 tumor growth delay, single-dose colchicine with camptothecin (Example 2A); type: in vivo, C3H mice
Method: (§1) For the examples below, transplantable experimental murine fibrosarcomas (2×10^5 RIF-1 cells) were grown intradermally in the flank s of 3 month old female C3H mice (Charles River, Holister, Calif.). When the tumors reached a volume of approximately 100 mm^3, the mice were randomly assigned to each experimental group (4 mice per group).
(§2) Colchicine was obtained from Sigma-Aldrich (St. Louis, Mo.) and was made to the appropriate concentration in water for injection. After the treatments described below, the growth of the tumors was monitored three times per week by caliper measurements of three perpendicular diameters of the tumor. The tumor volume was calculated from the formula: V=π/6×D1×D2×D3, where D1-3 are the diameter measurements in mm.
(§3) In each Example, the tumors were followed until they reached a size of four times their day zero treatment volume (TVQT), or up to 30 days after treatment, whichever came first. The data is expressed as the “tumor volume quadrupling time” (TVQT) mean and as the “delay.” Mean TVQT is the mean days required for individual tumors to grow to four times the tumor volume at the initial treatment day. The “delay” is the median of days required for a tumor to grow to four times the mean size of the treated group, minus the median of days required to grow to four times the mean size of the control group. The data is also expressed as the ratio of the tumor volume quadrupling time of the treated tumor over the untreated control group (TVQT/CTVQT). Increasing values of this ratio indicate increased antitumor response.
A. Effect of Single Doses of Colchicine Administered Concurrently with Camptothecin Camptothecin (Boehringer Ingelheim-Lot 71012) was made to the appropriate concentration in DMSO. Colchicine was given orally in a volume of 100 μl. Camptothecin was injected systemically (i.e., intraperitoneally, i.p.), in a volume of 100 μl. For the treatment of group 3, colchicine was given orally immediately prior to the intraperitoneal injection of camptothecin. The experimental compositions were prepared as described in Table 4.

[3] = test system: murine fibrosarcomas (RIF-1 cells); test: RIF-1 tumor growth delay, single or multiple colchicine doses in mixed sequence with camptothecin (Example 2B); type: in vivo, C3H mice
Method: as §1, §2, §3
In FIG. 5, the arrow indicates a one hour interval separating treatment with each agent. The experimental compositions were prepared as described above. In two treatment groups, colchicine was administered orally in three doses (“colch×3” or “colchicine×3”). When three dosages of colchicine were administered, the first was given one hour after the administration of camptothecin (day 0), the second on day 1 and the third on day 2.

[4] = test system: murine fibrosarcomas (RIF-1 cells); type: in vivo, C3H mice
Method: as §1, §2, §3
Cisplatin (David Bull Laboratories—Mulgrave, Australia, lot. 5201844x) was made to the appropriate concentration in water for injection. Colchicine was given orally in a volume of 100 μl. Cisplatin was injected systemically (i.e., intraperitoneally, i.p.), in a volume of 100 μl. For the treatment of group 3, colchicine was given orally immediately prior to the intraperitoneal injection of cisplatin. The experimental compositions were prepared as described in Table 7.

[5] = test system: murine fibrosarcomas (RIF-1 cells); type: in vivo, C3H mice; remark: listed apart in the source
Method: as §1, §2, §3
Etoposide (Sigma-Aldrich, lot. 46H078) was made to the appropriate concentration in DMSO. Etoposide and colchicine were injected systemically (i.e., intraperitoneally, i.p.), in a volume of 100 μl. The experimental compositions were prepared as described in Table 2.

[6] = test system: murine fibrosarcomas (RIF-1 cells)
Description: In each Example, the tumors were followed until they reached a size of four times their day zero treatment volume (TVQT), or up to 30 days after treatment, whichever came first. The data is expressed as the “tumor volume quadrupling time” (TVQT) mean and as the “delay.” Mean TVQT is the mean days required for individual tumors to grow to four times the tumor volume at the initial treatment day. […] The data is also expressed as the ratio of the tumor volume quadrupling time of the treated tumor over the untreated control group (TVQT/CTVQT). Increasing values of this ratio indicate increased antitumor response.

[7] = test system: murine fibrosarcomas (RIF-1 cells); type: in vivo, C3H mice; remark: listed apart in the source
Method: as §1, §2, §3
Paclitaxel was obtained prediluted at 1 mg/ml in a cremaphor/ethanol solution. Colchicine was given at a dose of 2 mg/kg and paclitaxel was given, for each injection, at a dose of 10 mg/kg. For group 4, a total of three paclitaxel injections were given, one each on days 0, 3 and 5. The compositions were injected systemically (i.e., intraperitoneally, i.p.), in a volume of 100 μl.

[8] = colchicine 10 mg/kg oral × 3 (days 0, 1, 2)
[9] = colchicine 10 mg/kg oral, single dose
[10] = colchicine 2 mg/kg i.p. (Table 11: 1 mg/kg)
[11] = paclitaxel 10 mg/kg i.p., 3× (days 0, 3, 5)
[12] = paclitaxel 10 mg/kg i.p., given once
[13] = vinblastine 1 mg/kg i.p., 3× (days 0, 3, 6)
[14] = vinblastine 1 mg/kg i.p., 4× (days 0, 3, 6, 8)

CN(C)CCN1C(=O)c2cccc3cc(N)cc(c23)C1=O [Amonafide]
Days to 4× (ave ± SE) ([1]; amonafide IP 60 mg/kg): 9.8 ± 0.6 days | Days to 4× Median ([1]; amonafide IP 60 mg/kg): 10.1 days | Delay ([1]; amonafide IP 60 mg/kg): 2.55 days | T/C ([1]; amonafide IP 60 mg/kg): 1.3

CC[C@@]1(O)C(=O)OCc2c1cc1n(c2=O)Cc2cc3ccccc3nc2-1 [Camptothecin, camptothecin]
Delay ([2]; camptothecin 6 mg/kg i.p.): 3.60 days | Mean TVQT ± S.E. ([2]; camptothecin 6 mg/kg i.p.): 9.4 ± 0.5 days | Median (TVQT) ([2]; camptothecin 6 mg/kg i.p.): 9.9 days | TVQT/CTVQT ([2]; camptothecin 6 mg/kg i.p.): 1.5 | Days to 4× (Ave ± SE) ([3]; CPT 6 mg/kg IP): 12.9 ± 0.5 days | Delay ([3]; CPT 6 mg/kg IP): 5.45 days | Median ([3]; CPT 6 mg/kg IP): 12.8 days | T/C ([3]; CPT 6 mg/kg IP): 1.7 | Days to 4× (ave ± SE) ([1]; camptothecin IP 3 mg/kg): 8.26 ± 0.46 days | Days to 4× Median ([1]; camptothecin IP 3 mg/kg): 8.27 days | Delay ([1]; camptothecin IP 3 mg/kg): 0.71 days | T/C ([1]; camptothecin IP 3 mg/kg): 1.1

N.N.[Cl][Pt][Cl] [Cisplatin, cis-diamminedichloroplatinum II]
Delay ([4]; cisplatin 4 mg/kg i.p.): 1.45 days | Median (TGD) ([4]; cisplatin 4 mg/kg i.p.): 7.7 days | TGD ± S.E. ([4]; cisplatin 4 mg/kg i.p.): 7.4 ± 0.3 days | TGD/CTGD ([4]; cisplatin 4 mg/kg i.p.): 1.2 | Days to 4× (ave ± SE) ([1]; CDDP IP 4 mg/kg): 9.44 ± 0.42 days | Days to 4× Median ([1]; CDDP IP 4 mg/kg): 9.22 days | Delay ([1]; CDDP IP 4 mg/kg): 1.66 days | T/C ([1]; CDDP IP 4 mg/kg): 1.2

COc1cc2c(c(OC)c1OC)-c1ccc(OC)c(=O)cc1[C@@H](NC(C)=O)CC2 [Colchicine, (S)-N-(5,6,7,9-tetrahydro-1,2,3,10-tetramethoxy-9-oxobenzo[a]heptalen-7-yl)acetamide]
Effect of colchicine on the antiproliferative activity of etoposide ([5]; both compounds (group 4) versus etoposide alone or colchicine alone): more than additive effect | Delay ([5]; colchicine 2 mg/kg i.p.): 1.65 days | Mean TVQT ± S.E. ([5]; colchicine 2 mg/kg i.p.): 9.5 ± 0.2 days | Median (TVQT) ([5]; colchicine 2 mg/kg i.p.): 9.3 days | TVQT/CTVQT ([5]; colchicine 2 mg/kg i.p.): 1.2 | Delay ([6]; colchicine 1 mg/kg i.p.): 1.15 days | Mean TVQT ± S.E. ([6]; colchicine 1 mg/kg i.p.): 7.2 ± 0.5 days | Median (TVQT) ([6]; colchicine 1 mg/kg i.p.): 7.2 days | TVQT/CTVQT ([6]; colchicine 1 mg/kg i.p.): 1.1 | Effect of colchicine on the antiproliferative activity of cisplatin ([4]; both compounds (group 4) versus cisplatin alone or colchicine alone): more than additive effect | Delay ([4]; colchicine 10 mg/kg oral): 0.02 days | Median (TGD) ([4]; colchicine 10 mg/kg oral): 6.3 days | TGD ± S.E. ([4]; colchicine 10 mg/kg oral): 6.4 ± 0.3 days | TGD/CTGD ([4]; colchicine 10 mg/kg oral): 1.0 | Effect of colchicine on the antiproliferative activity of camptothecin ([2]; both compounds (group 4) versus camptothecin alone or colchicine alone): more than additive effect | Delay ([2]; colchicine 10 mg/kg oral): 0.02 days | Mean TVQT ± S.E. ([2]; colchicine 10 mg/kg oral): 6.4 ± 0.3 days | Median (TVQT) ([2]; colchicine 10 mg/kg oral): 6.3 days | TVQT/CTVQT ([2]; colchicine 10 mg/kg oral): 1.0 | Days to 4× (Ave ± SE) [3, 8]: 7.2 ± 0.3 days | Delay [3, 8]: -0.04 days | Median [3, 8]: 7.3 days | T/C [3, 8]: 1.0 | Tumor growth delay, three doses of colchicine compared to a single dose ([3]; colchicine 10 mg/kg oral × 3 versus single dose): did not delay tumor growth significantly | Days to 4× (Ave ± SE) [3, 9]: 7.7 ± 0.4 days | Delay [3, 9]: 0.32 days | Median [3, 9]: 7.6 days | T/C [3, 9]: 1.0 | Delay [7, 10]: 3.34 days | Mean TVQT ± S.E. [7, 10]: 11.3 ± 0.6 days | Median (TVQT) [7, 10]: 10.8 days | TVQT/CTVQT [7, 10]: 1.5

COc1cc([C@@H]2c3cc4c(cc3[C@@H](O[C@@H]3O[C@@H]5CO[C@@H](C)O[C@H]5[C@H](O)[C@H]3O)[C@H]3COC(=O)[C@H]23)OCO4)cc(OC)c1O [Etoposide]
Delay ([5]; etoposide 10 mg/kg i.p.): -0.17 days | Mean TVQT ± S.E. ([5]; etoposide 10 mg/kg i.p.): 7.7 ± 0.5 days | Median (TVQT) ([5]; etoposide 10 mg/kg i.p.): 7.5 days | TVQT/CTVQT ([5]; etoposide 10 mg/kg i.p.): 1.0

CC(=O)O[C@H]1C(=O)[C@@]2(C)[C@H]([C@H](OC(=O)c3ccccc3)[C@]3(O)C[C@H](OC(=O)[C@H](O)[C@@H](NC(=O)c4ccccc4)c4ccccc4)C(C)=C1C3(C)C)[C@]1(OC(C)=O)CO[C@@H]1C[C@@H]2O [Paclitaxel]
Effectiveness of paclitaxel given 3 times versus once ([7]; RIF-1 model, paclitaxel 10 mg/kg i.p.): slightly more effective | Delay [7, 11]: 1.59 days | Mean TVQT ± S.E. [7, 11]: 10.8 ± 1.9 days | Median (TVQT) [7, 11]: 9.0 days | TVQT/CTVQT [7, 11]: 1.4 | Delay [7, 12]: 0.67 days | Mean TVQT ± S.E. [7, 12]: 9.1 ± 0.7 days | Median (TVQT) [7, 12]: 8.1 days | TVQT/CTVQT [7, 12]: 1.2

CC[C@]1(O)C[C@@H]2CN(CCc3c([nH]c4ccccc34)[C@@](C(=O)OC)(c3cc4c(cc3OC)N(C)[C@H]3[C@@](O)(C(=O)OC)[C@H](OC(C)=O)[C@]5(CC)C=CCN6CC[C@]43[C@@H]65)C2)C1 [Vinblastine]
Tumor growth delay curve when vinblastine was given after colchicine ([6]; group 7: vinblastine days 0, 3, colchicine day 6, vinblastine day 8): renewed sensitivity to vinblastine | Delay ([6]; vinblastine 1 mg/kg i.p., 1×): 0.11 days | Mean TVQT ± S.E. ([6]; vinblastine 1 mg/kg i.p., 1×): 6.6 ± 0.4 days | Median (TVQT) ([6]; vinblastine 1 mg/kg i.p., 1×): 6.2 days | TVQT/CTVQT ([6]; vinblastine 1 mg/kg i.p., 1×): 1.0 | Mean TVQT ± S.E. [6, 13]: 8.9 ± 0.9 days | Median (TVQT) [6, 13]: 7.8 days | TVQT/CTVQT [6, 13]: 1.4 | Mean TVQT ± S.E. [6, 14]: 8.4 ± .06 days | Median (TVQT) [6, 14]: 8.6 days | TVQT/CTVQT [6, 14]: 1.2

From patent US20050170015A1 (priority 2000, published 2005)
